Source: patent US12624029B2, “JAK inhibitor compounds, method for synthesizing same and use thereof” (GALDERMA HOLDING SA, priority 2020, dated 2026)

Assays:
[1] = tested on: different pharmacological targets; test: CEREP Safety Screen-44 in vitro pharmacology binding and enzyme/uptake assays; settings: tested at 10 μM; FIGS. 2-5
Procedure: An in vitro pharmacology assay was conducted to assess the capability of the compounds to interact with different pharmacological targets when tested at 10 μM in different binding and enzyme/uptake assays. The included targets are indicative of potential effects in major organs and drug-drug interactions.
Compound binding was calculated as a % inhibition of the binding of a radioactively labelled ligand specific for each target. Compounds were tested at 1.0E-05 M. Compound enzyme inhibition effect was calculated as a % inhibition of control enzyme activity. Results showing an inhibition or stimulation higher than 50% are considered to represent significant effects of the test compounds.

[2] = tested on: Salmonella typhimurium TA98 and TA100; test: Mini Ames assay (TA98 and TA100); format: cell-based; settings: for increase in the mean number of revertants: TA98 and TA100, with or without metabolic activation (S9)
Excerpt: The Ames test in micro-method (in 6-well plates=mini Ames) follows the general principles of the standard Ames's technique. The Ames test used strains of bacteria Salmonella typhimurium that carry mutations in the genes involved in histidine synthesis. These strains are auxotrophic mutants, they require histidine for growth but cannot produce it. The assay was used to observe the ability of the test item to induce reverse mutations allowing the bacteria to grow in a histidine-free medium. The number of bacteria that revert and acquire the wild-type ability to grow in the absence of histidine can be estimated by counting the colonies that develop upon incubation. The use of different strains allows the identification of different mechanisms of gene mutation (TA98 for detection of frameshift mutations and TA100 for detection of base pair substitutions).
In a number of cases, the test item itself is not directly mutagenic but its metabolic derivatives are.
A toxicity assessment was performed on complete nutriment agar plate (with histidine) to define the highest concentration to be used in the genotoxicity assay. Solutions were prepared in 100% DMSO. The first concentration analyzed in the well (6-well plate) was 500 μg per plate followed by 7 serial dilutions (2 times factor of dilution). […] The viability of the positive and negative controls was analyzed for each strain, in the presence or absence of metabolic activation system, and were compared with historical data to validate the study. […]
Test items, positive and negative controls were incubated with the 2 bacterial strains. After 48 h incubation at 37° C. with and without metabolic activation (S9), the prototrophic mutant colonies that had grown on the plates were counted. The results were expressed as the mean number of revertants for each condition tested (3 replicates each) and for each concentration of the test item and controls. Induction ration, corresponding to the ratio of revertants in presence of test item versus spontaneous revertant, was determined for each concentration.

SMILES | pharmacological effects in safety screen compared with Ruxolitinib [1] | increase in the mean number of revertants [2] | mutagenicity ([2]; TA98 & TA100, with and without metabolic system)
CN(CC1CCC1)S(=O)(=O)C[C@H]1C[C@@H](Nc2c(C#N)cnc3[nH]ccc23)C1 [Compound D] | significantly improved pharmacological effects over Ruxolitinib | did not induce a biologically significant increase | –
C=CCCN(C)S(=O)(=O)C[C@H]1C[C@@H](Nc2c(C#N)cnc3[nH]ccc23)C1 [Compound C, N-(But-3-en-1-yl)-1-((cis)-3-((5-cyano-1H-pyrrolo[2,3-b]pyridin-4-yl)amino)cyclobutyl)-N-methylmethanesulfonamide] | significantly improved pharmacological effects over Ruxolitinib | did not induce a biologically significant increase | not considered to be mutagenic
